In US20080071331A1, “Photodynamic Therapy For The Treatment Of Prostatic Conditions” (QLT Inc., priority 2004, published 2008):

Tested on: prostate
Experiment: Photodynamic therapy of the dog prostate after direct intraprostatic injection of lemuteporfin and transurethral 690 nm light
Type: in vivo
Settings: mature intact mixed-breed dogs
Description: Eight mature, intact, mixed-breed dogs are premedicated with butorphanol (0.4 mg per kilogram of body weight), acepromazine (0.1 mg/kg), and atropine (0.4 mg/kg), all given by intramuscular injection. Anesthesia is induced with intravenous thiopental sodium (8 mg per 0.4536 kilograms of body weight) and maintained with inhaled isoflurane and oxygen (dosage as required for anesthetic effect). Lemuteporfin for injection (A-EA6 in U.S. Pat. No. 5,929,105) is reconstituted with Water for Injection to give a stock concentration of 2.0 mg/ml and diluted with 5% Dextrose in water to a concentration 0.2 mg/ml. A standard cystoscope is inserted into the urethra. Injections of the drug are then delivered to the prostate using a commercially available transurethral injection device (InjecTx™, San Jose, Calif., USA) which is compatible with the cystoscope. Two injections of 0.5 ml are given to each left lobe of the prostate and 2 injections of 1.0 ml are given to each right lobe of the prostate. The transurethral injection device is then removed and a guidewire is inserted through the working channel of the cystoscope. The activation-energy delivery device comprises: a cylindrical fibre optic with a 200 μm diameter core, a 25 mm long diffuser, and a power rating of 175 mW/cm (maximum power load, 437.5 mW); a reflective-cap fibre-centering balloon catheter with a 20 mm treatment window supplied with a guidewire for positioning the device in the urethra; and a 3 W 690 nm red-light diode laser (AOC, South Plainfield, N.J., USA). The catheter is inserted and positioned using the guidewire which is fed through an internal channel of the catheter. Once the catheter is in position the balloon is inflated to secure it in place. The guidewire is removed from the catheter and the fiber optic diffuser is inserted into the catheter and secured in place. The treatment assembly is positioned in the urethra using ultrasonic guidance. Ultrasound is also used to position the needles for four percutaneous intraprostatic injections (two per lobe separated by longitudinally by 1 cm). […]

[1] = 0.2 mg/ml intraprostatic injections, 690 nm light 25, 50 or 100 J/cm^2, after seven days

## C=Cc1c(C)c2cc3nc(cc4[nH]c(cc5nc(cc1[nH]2)C(C)=C5CCC(=O)OCCO)c(CCC(=O)OCCO)c4C)[C@@]1(C)C3=CC=C(C(=O)OC)[C@H]1C(=O)OC [Lemuteporfin, lemuteporfin]
[1]
  Bowel, bladder, and prostate sizes: within normal ranges
  PDT-associated damage in the urethra: no significant PDT-associated damage
0.2 mg/ml, 2 x 0.5 ml left lobe, 2 x 1.0 ml right lobe, 690 nm light 25, 50 or 100 J/cm^2 15 minutes after last injection, prostates harvested after seven days
  PDT-associated tissue damage in the target tissue (prostates): evidence of PDT-associated tissue damage in the target tissue
